Results: the supplement of paper PMC13380429

Assays:
Conditions in all cases: 72 h
[1] = tested on: Caco-2; assay: cell viability relative to DMSO; higher = less toxic
[2] = tested on: Calu-3; assay: as above
[3] = tested on: HepG2; assay: as above
[4] = tested on: U2OS; assay: as above
[5] = tested on: Vero E6; assay: as above
[6] = tested on: Caco-2; assay: relative viability EC50 (midpoint between 100% and the lowest measured viability); higher = less toxic
[7] = tested on: Calu-3; assay: as above
[8] = tested on: HepG2; assay: as above
[9] = tested on: U2OS; assay: as above
[10] = tested on: Vero E6; assay: as above
[11] = tested on: Caco-2; assay: drug sensitivity score (DSS) for viability; higher = more toxic; extreme values may be limits of the assay
[12] = tested on: Calu-3; assay: as above
[13] = tested on: HepG2; assay: as above
[14] = tested on: U2OS; assay: as above
[15] = tested on: Vero E6; assay: as above

SMILES | cell viability ([1]; 1 nM) [%] | cell viability ([1]; 10 nM) [%] | cell viability ([1]; 100 nM) [%] | cell viability ([1]; 1000 nM) [%] | cell viability ([1]; 10000 nM) [%] | cell viability ([2]; 1 nM) [%] | cell viability ([2]; 10 nM) [%] | cell viability ([2]; 100 nM) [%] | cell viability ([2]; 1000 nM) [%] | cell viability ([2]; 10000 nM) [%] | cell viability ([3]; 1 nM) [%] | cell viability ([3]; 10 nM) [%] | cell viability ([3]; 100 nM) [%] | cell viability ([3]; 1000 nM) [%] | cell viability ([3]; 10000 nM) [%] | cell viability ([4]; 1 nM) [%] | cell viability ([4]; 10 nM) [%] | cell viability ([4]; 100 nM) [%] | cell viability ([4]; 1000 nM) [%] | cell viability ([4]; 10000 nM) [%] | cell viability ([5]; 1 nM) [%] | cell viability ([5]; 10 nM) [%] | cell viability ([5]; 100 nM) [%] | cell viability ([5]; 1000 nM) [%] | cell viability ([5]; 10000 nM) [%] | relative viability EC50 [6] [µM] | relative viability EC50 [7] [µM] | relative viability EC50 [8] [µM] | relative viability EC50 [9] [µM] | relative viability EC50 [10] [µM] | drug sensitivity score [11] | drug sensitivity score [12] | drug sensitivity score [13] | drug sensitivity score [14] | drug sensitivity score [15]
OCc1ccccc1O [salicyl-alcohol] | 101 | 97.3 | 111 | 107 | 102 | 95.5 | 109 | 108 | 94.2 | 96.9 | 104 | 98.2 | 85.7 | 105 | 94.2 | 103 | 95.4 | 101 | 94.4 | 98.6 | 98.8 | 104 | 95.5 | 105 | 110 | > 10 | > 10 | > 10 | > 10 | > 10 | 0 | 0 | 0 | 0 | 0
CC(C)=CCC/C(C)=C/CC/C(C)=C/CSc1ccccc1C(=O)O [salirasib] | 93.4 | 97.8 | 98.9 | 96.3 | 92.6 | 104 | 99.6 | 101 | 103 | 99.2 | 98.5 | 98.7 | 93.9 | 98.5 | 94.8 | 102 | 97.3 | 98 | 96.6 | 97.9 | 95.8 | 103 | 97.2 | 97.4 | 97.3 | > 10 | > 10 | > 10 | > 10 | > 10 | 0 | 0 | 0 | 0 | 0
O=C(Oc1ccccc1C(=O)O)c1ccccc1O [sasapyrine] | 106 | 95.3 | 90.3 | 82.8 | 81.9 | 87.8 | 108 | 100 | 100 | 93 | 93.1 | 86.4 | 100 | 91.7 | 105 | 100 | 98.6 | 101 | 97.2 | 94.9 | 110 | 99.9 | 102 | 88.3 | 89.8 | > 10 | > 10 | > 10 | > 10 | > 10 | 2.6 | 0 | 0 | 0 | 0.4
CC(NC(=O)c1ccccc1/N=C/c1c(O)ccc2ccccc12)c1ccccc1 (stereo not given) [sirtinol] | 93.6 | 97.8 | 101 | 105 | 110 | 96.5 | 97.6 | 104 | 112 | 104 | 101 | 106 | 90.7 | 96.9 | 100 | 96.8 | 102 | 96.1 | 101 | 103 | 97.1 | 91.2 | 93 | 92.4 | 101 | > 10 | > 10 | > 10 | > 10 | > 10 | 0 | 0 | 0 | 0 | 0
CCCCCCCCCCCCCCCCCC(=O)OC[C@@H](O)[C@H]1OC[C@H](O)[C@H]1O [sorbitan-monostearate] | 92.1 | 104 | 87.4 | 100 | 98.7 | 101 | 92.9 | 94.1 | 108 | 101 | 93.7 | 89.2 | 98.7 | 102 | 108 | 102 | 102 | 101 | 107 | 99.9 | 99.5 | 102 | 97.2 | 100 | 101 | > 10 | > 10 | > 10 | > 10 | > 10 | 0 | 0 | 0 | 0 | 0
O=C1[C@@H]2[C@H]3CC[C@H](C3)[C@@H]2C(=O)N1CCCCN1CCN(c2ncccn2)CC1 [tandospirone] | 93.6 | 95.5 | 94.1 | 98.2 | 95.4 | 113 | 103 | 92 | 86.8 | 99.7 | 107 | 97 | 110 | 104 | 99.7 | 98.3 | 98.6 | 98.5 | 99.8 | 97.7 | 107 | 104 | 98.5 | 96.2 | 101 | > 10 | > 10 | > 10 | > 10 | > 10 | 0 | 1.3 | 0 | 0 | 0
CCOC(=O)c1ccc(C#Cc2ccc3c(c2)C(C)(C)CCS3)nc1 [tazarotene] | 91.3 | 96.3 | 96.4 | 86 | 83.8 | 99.5 | 101 | 100 | 87.5 | 91.2 | 108 | 92.8 | 119 | 105 | 110 | 93.7 | 98 | 92.2 | 92.2 | 93.6 | 101 | 97.7 | 94.9 | 94.9 | 110 | > 10 | > 10 | > 10 | > 10 | > 10 | 0.7 | 0.7 | 0 | 0 | 0
C[C@H](Cn1cnc2c(N)ncnc21)OCP(=O)(O)O [tenofovir] | 97.8 | 89.2 | 96.9 | 99.6 | 107 | 98.4 | 101 | 94.7 | 93.3 | 93.8 | 93.9 | 94.6 | 105 | 107 | 115 | 101 | 98.6 | 102 | 99.8 | 103 | 94.4 | 94.4 | 97.2 | 94.5 | 107 | > 10 | > 10 | > 10 | > 10 | > 10 | 0 | 0 | 0 | 0 | 0
Cc1cc(OI)c(C(C)C)cc1-c1cc(C(C)C)c(OI)cc1C [thymol-iodide] | 104 | 102 | 103 | 97.7 | 87.9 | 91.2 | 97 | 102 | 101 | 105 | 99.5 | 105 | 92.8 | 99.1 | 93.7 | 101 | 103 | 103 | 98.2 | 99.6 | 104 | 102 | 99.7 | 99.5 | 97.7 | > 10 | > 10 | > 10 | > 10 | > 10 | 0.2 | 0 | 0 | 0 | 0
CC(=O)c1ccc2c(c1)[C@H](NC(=O)c1ccc(F)c(Cl)c1)[C@H](O)C(C)(C)O2 [tonabersat] | 88.2 | 123 | 81.3 | 107 | 86.6 | 95.4 | 100 | 99 | 106 | 111 | 95 | 95.3 | 126 | 97.9 | 90.2 | 100 | 105 | 92.1 | 101 | 101 | 109 | 110 | 103 | 100 | 98.6 | > 10 | > 10 | > 10 | > 10 | > 10 | 0 | 0 | 0 | 0 | 0
C(#CCN1CCCC1)CN1CCCC1 [tremorine] | 91.8 | 108 | 87.3 | 97.7 | 83.1 | 109 | 104 | 96.3 | 88.3 | 103 | 88.5 | 103 | 100 | 97.8 | 93.6 | 94.9 | 101 | 91.5 | 95.3 | 92.7 | 103 | 108 | 98.5 | 104 | 92 | > 10 | > 10 | > 10 | > 10 | > 10 | 0.3 | 0 | 0 | 0 | 0
COc1cc(Cc2cnc(N)nc2N)cc(OC)c1OC [trimethoprim] | 114 | 113 | 119 | 103 | 90.1 | 103 | 89.6 | 107 | 110 | 113 | 82.4 | 102 | 106 | 89.8 | 97.6 | 92.3 | 98.4 | 96 | 99.6 | 105 | 99.8 | 91.4 | 100 | 94.4 | 96.4 | > 10 | > 10 | > 10 | > 10 | > 10 | 0 | 0 | 0 | 0 | 0
CNCc1cc(-c2ccccc2F)n(S(=O)(=O)c2cccnc2)c1 [vonoprazan] | 97.5 | 100 | 102 | 100 | 96.4 | 99.8 | 96.7 | 94.9 | 96.6 | 105 | 101 | 93.6 | 100 | 94.3 | 107 | 95.4 | 100 | 98.1 | 102 | 94.4 | 103 | 99.4 | 97.9 | 99.7 | 98.9 | > 10 | > 10 | > 10 | > 10 | > 10 | 0 | 0 | 0 | 0 | 0
COc1cc(-c2ccc(=O)[nH]n2)ccc1OC(F)F [zardaverine] | 87.1 | 90 | 96.9 | 96.3 | 104 | 108 | 95.9 | 89.5 | 92.4 | 89.4 | 93.8 | 110 | 95.7 | 106 | 99.7 | 97.8 | 95.8 | 103 | 98 | 99.2 | 95.5 | 101 | 94.5 | 93 | 92.6 | > 10 | > 10 | > 10 | > 10 | > 10 | 0 | 0.3 | 0 | 0 | 0
